Data on 13 compounds can be found in paper PMC6504873, “High-throughput screening of the Plasmodium falciparum cGMP-dependent protein kinase identified a thiazole scaffold which kills erythrocytic and sexual stage parasites” (Scientific Reports, 2019).

Data set [1] is described as follows: ChromlogD (lipophilicity).
In data set [2] the target is T1, WT PfPKG (Plasmodium falciparum, UniProt Q8I719).
T1 construct: recombinant full length wild type (WT) PfPKG; His6 (N); host or cells: E. coli BL21
T1 sequence (Q8I719 whole entry): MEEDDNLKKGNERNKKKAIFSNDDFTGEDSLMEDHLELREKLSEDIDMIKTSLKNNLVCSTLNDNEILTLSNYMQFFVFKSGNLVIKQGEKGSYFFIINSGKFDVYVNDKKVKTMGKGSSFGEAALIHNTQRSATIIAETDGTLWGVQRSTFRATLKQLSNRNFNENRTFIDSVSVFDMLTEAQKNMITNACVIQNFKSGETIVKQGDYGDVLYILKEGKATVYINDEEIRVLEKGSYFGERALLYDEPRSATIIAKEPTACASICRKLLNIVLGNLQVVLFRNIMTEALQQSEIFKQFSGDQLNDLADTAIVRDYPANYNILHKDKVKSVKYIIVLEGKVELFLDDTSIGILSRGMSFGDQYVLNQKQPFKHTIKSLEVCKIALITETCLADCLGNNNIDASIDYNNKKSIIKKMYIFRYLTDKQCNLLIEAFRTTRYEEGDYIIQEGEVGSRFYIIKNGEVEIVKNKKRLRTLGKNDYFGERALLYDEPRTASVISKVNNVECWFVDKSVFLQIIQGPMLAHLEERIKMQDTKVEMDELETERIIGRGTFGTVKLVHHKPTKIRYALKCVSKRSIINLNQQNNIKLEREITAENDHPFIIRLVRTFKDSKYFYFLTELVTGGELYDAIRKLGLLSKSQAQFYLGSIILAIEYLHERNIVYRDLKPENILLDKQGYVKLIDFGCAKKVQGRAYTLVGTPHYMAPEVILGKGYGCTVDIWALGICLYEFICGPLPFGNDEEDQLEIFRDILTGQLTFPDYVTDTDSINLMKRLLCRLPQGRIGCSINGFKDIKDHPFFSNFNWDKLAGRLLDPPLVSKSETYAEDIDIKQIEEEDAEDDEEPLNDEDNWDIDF
Kind of data set: Kinase Glo enzymatic assay, recombinant WT PfPKG. The class given is biochemical, P. falciparum. Here is the method:
To identify new PKG inhibitor scaffolds, the 1.7 million GlaxoSmithKline Full Diversity collection was tested at a single final concentration of 10 μM against recombinant full length wild type (WT) PfPKG using a Kinase Glo-based assay (Promega). The results gave a robust Z′ mean value of 0.85. At an average statistical cut-off of 30%, 20,174 primary hits were identified with an overall hit rate of 1%. Fresh samples of these primary hits were tested in duplicate against WT PfPKG and also against human PKGIα (HuPKGIα) (Supplementary Fig. 1) at a final concentration of 10 μM (confirmation step).
Protein production was outsourced to the Division of Signal Transduction Therapy, University of Dundee. Briefly, the pTRChis expression vectors (Invitrogen) containing an N-terminally His6-tagged PfPKG wildtype and T618Q were used to transform BL21 cells (protocol adapted from[23]). The cells were grown at 37 °C until the OD600 was 0.4–0.6 then the temperature was reduced to 15 °C and the cells were induced with 250 µM IPTG and grown for a further 16–18 hours before harvesting. The His6-PfPKG was purified on Cobalt agarose followed by gel filtration and the protein was dialysed into 25 mM Hepes pH 7.5, 0.1 mM EGTA, 150 mM NaCl, 50% glycerol and 2 mM DTT.
Initial optimization of the PKG assay was performed manually in 384-well plates and analysed with GraFit 7. The buffer for all assays was 25 mM HEPES pH 7.3 (GIBCO), 10 mM MgCl2 (Sigma), 2 mM DTT (Sigma), 0.01 mM cGMP (Sigma), 0.1 mg/ml BSA (Ambion). Enzymatic activity was tested using a luminescence-based kit (Promega KinaseGlo). Addition of the first reagent depletes the unused ATP and addition of the second reagent converts ADP (product of the kinase reaction) to ATP, which is then measured through a luciferin/luciferase reaction. The amount of luminescence is directly proportional to ATP turnover by the kinase. The kit was chosen because it can be miniaturized to small volumes (i.e. 4 µl) in 1536-well plates, for use in HTS.
We used PKA peptide substrate (SCP0212, Sigma-Aldrich) for WT and TQ PfPKG, dissolved in milliQ water at a final concentration of 5 mM, and Long S6 peptide substrate (produced at the University of Dundee, sequence […]) for HuPKGIα, dissolved in water at a final concentration of 30 mM.
We calculated the Michaelis-Menten (Km) constant for ATP and peptide substrate (PKA or Long S6) for all enzymes using GraphPad Prism (Supplementary Figs 2 and 3 and Supplementary Table 3). In order to identify different types of PKG inhibitors, including ATP competitive or non-competitive inhibitors, as well as inhibitors that bind to the peptide substrate pocket, we performed all assays using ATP and peptide substrate at a concentration equal to the Km. We also determined enzyme activity by calculating ATP turnover (Kcat) over the Km (Supplementary Table 3). The Kcat was calculated as (Vmax*slope)/[E] where Vmax is the maximum velocity and [E] is the concentration of the enzyme.
The plates containing the compounds were prepared at GSK in Upper Providence or Stevenage. Compounds were tested at a single final concentration of 10 µM or in a dose response with a range of concentrations starting from 100 μM to 1.6 nM (1 in 3 serial dilutions). Compounds were dispensed in the plates at the required concentration in a 40 nl volume. All plates (1536-well white Greiner) contained 40 nl of DMSO in lanes 11 and 12 (control 1, 100% enzyme activity) and were empty in lanes 35 and 36 (control 2, 0% enzyme activity). The plates were removed from −20 °C 1 hour before starting the assay. Using a Multidrop Combi dispenser (Thermo Scientific), 2 µl of the buffer containing ATP and the substrate were added to all wells then 2 µl of buffer only were added to column 35 and 36. Finally 2 µl of buffer containing the enzyme were dispensed in all the plate wells except for lanes 35 and 36. […]

Data set [3] deals with T1, WT PfPKG. More on the design: species or system P. falciparum. Particulars: for LE: ligand efficiency; for LLE: lipophilic ligand efficiency. The source says: A scoring system was developed to further prioritize interesting compounds. […] Three points were given to compounds that inhibit HuPKGIα at least 3 orders of magnitude less than WT PfPKG. […] We also considered how well the compounds bind to the target by taking into account two physicochemical properties: ligand efficiency (LE, 1.37 x pIC50/number heavy atoms) is a characterization of a compound’s efficiency on a per-heavy-atom basis[51] and lipophilic ligand efficiency (LLE, pIC50 – clogP) is a parameter used in drug design which links potency and lipophilicity in an attempt to estimate drug-likeness[52]. The ClogP coefficient measures lipophilicity. Values of LE ≥ 0.3 and LLE ≥ 5 are typically accepted as good starting points for optimizations efforts.

Data set [4] addresses PI3KD (Homo sapiens, UniProt O00329). Kind of data set: Preliminary safety test on human PI3KD kinase. The class given is biochemical.
The target in data set [5] is LCK (Homo sapiens, UniProt P06239). Kind of data set: Preliminary safety test on human LCK kinase. It is filed as biochemical. Here is the method: (§1) We explored the binding mode by also testing compounds on the gatekeeper mutant enzyme TQ PfPKG. […] A preliminary safety test was performed on human AuroraB and LCK kinases which often underpin toxicity issues. […] Further assays for compound characterization included determination of solubility and cytotoxicity (HepG2 inhibition).
Sequence of LCK (P06239 whole entry): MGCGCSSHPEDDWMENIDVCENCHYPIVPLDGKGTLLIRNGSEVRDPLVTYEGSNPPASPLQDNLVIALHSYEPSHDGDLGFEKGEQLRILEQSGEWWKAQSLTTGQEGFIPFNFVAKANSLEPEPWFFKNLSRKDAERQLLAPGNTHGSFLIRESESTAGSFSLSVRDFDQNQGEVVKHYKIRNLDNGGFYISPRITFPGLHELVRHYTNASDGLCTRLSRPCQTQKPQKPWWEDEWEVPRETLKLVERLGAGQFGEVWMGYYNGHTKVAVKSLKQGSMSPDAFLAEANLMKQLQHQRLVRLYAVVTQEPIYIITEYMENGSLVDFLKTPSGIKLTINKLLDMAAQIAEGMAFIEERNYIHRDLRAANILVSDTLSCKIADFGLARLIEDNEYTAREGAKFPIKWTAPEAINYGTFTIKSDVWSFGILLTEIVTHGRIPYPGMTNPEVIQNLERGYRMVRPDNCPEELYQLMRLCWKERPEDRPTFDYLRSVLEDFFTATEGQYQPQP

In data set [6] the target is AuroraB (Homo sapiens, UniProt Q96GD4). Kind of data set: Preliminary safety test on human AuroraB kinase. It is filed as biochemical. Here is the method: as §1
Sequence of AuroraB (Q96GD4 whole entry): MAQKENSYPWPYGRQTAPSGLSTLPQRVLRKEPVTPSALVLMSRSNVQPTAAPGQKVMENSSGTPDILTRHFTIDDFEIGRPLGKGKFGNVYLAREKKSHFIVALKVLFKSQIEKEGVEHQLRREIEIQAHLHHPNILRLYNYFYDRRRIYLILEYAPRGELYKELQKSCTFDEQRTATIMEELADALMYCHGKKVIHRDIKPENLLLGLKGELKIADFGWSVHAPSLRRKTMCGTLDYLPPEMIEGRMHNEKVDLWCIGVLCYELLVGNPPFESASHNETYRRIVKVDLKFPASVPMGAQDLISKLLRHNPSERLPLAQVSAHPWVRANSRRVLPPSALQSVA
In data set [7] the test system is HepG2 cells. Kind of data set: Cytotoxicity assay (CellTiter-Glo). The class given is cell-based. As to conditions: Homo sapiens; HepG2 cytotoxicity; read-out: HepG2. The method, then:
Cytotoxicity assays were performed on HepG2 cells as previously described. HepG2 cells were removed from a T-175 TC flask using 5 mL Eagle’s MEM (containing 10% FBS, 1% NEAA, 1% penicillin/streptomycin) and dispersed in the medium. Seeding density was checked to ensure that new mono-layers were not more than 50% confluent at the time of harvesting. Cells were added to 500 mL of the same medium at a final density of 1.2 × 10^5 cells/mL. They were then dispensed (25 μL, about 3,000 cells per well) into 384-well clear-bottom plates using a Multidrop Combi dispenser. Test compounds (250 nL) were dispensed into the plates with an EchoH liquid handler prior to addition of the cells. Plates were incubated for 48 h at 37 °C, 5% CO2. After incubation, plates were equilibrated at room temperature for 30 minutes before proceeding to develop the luminescent signal. The CellTiter-GloH Reagent was allowed to equilibrate at room temperature for 30 minutes and added to the plates (25 μL per well) using a Multidrop Combi dispenser. Plates were left for 10 minutes at room temperature for stabilization and then read using a Perkin Elmer ViewLux.

The mark [8] stands for this setting: WT PfPKG (μM), recombinant WT PfPKG.

Where only a bound is given, the exact number is not on record here.

Sequence of PI3KD (O00329 whole entry): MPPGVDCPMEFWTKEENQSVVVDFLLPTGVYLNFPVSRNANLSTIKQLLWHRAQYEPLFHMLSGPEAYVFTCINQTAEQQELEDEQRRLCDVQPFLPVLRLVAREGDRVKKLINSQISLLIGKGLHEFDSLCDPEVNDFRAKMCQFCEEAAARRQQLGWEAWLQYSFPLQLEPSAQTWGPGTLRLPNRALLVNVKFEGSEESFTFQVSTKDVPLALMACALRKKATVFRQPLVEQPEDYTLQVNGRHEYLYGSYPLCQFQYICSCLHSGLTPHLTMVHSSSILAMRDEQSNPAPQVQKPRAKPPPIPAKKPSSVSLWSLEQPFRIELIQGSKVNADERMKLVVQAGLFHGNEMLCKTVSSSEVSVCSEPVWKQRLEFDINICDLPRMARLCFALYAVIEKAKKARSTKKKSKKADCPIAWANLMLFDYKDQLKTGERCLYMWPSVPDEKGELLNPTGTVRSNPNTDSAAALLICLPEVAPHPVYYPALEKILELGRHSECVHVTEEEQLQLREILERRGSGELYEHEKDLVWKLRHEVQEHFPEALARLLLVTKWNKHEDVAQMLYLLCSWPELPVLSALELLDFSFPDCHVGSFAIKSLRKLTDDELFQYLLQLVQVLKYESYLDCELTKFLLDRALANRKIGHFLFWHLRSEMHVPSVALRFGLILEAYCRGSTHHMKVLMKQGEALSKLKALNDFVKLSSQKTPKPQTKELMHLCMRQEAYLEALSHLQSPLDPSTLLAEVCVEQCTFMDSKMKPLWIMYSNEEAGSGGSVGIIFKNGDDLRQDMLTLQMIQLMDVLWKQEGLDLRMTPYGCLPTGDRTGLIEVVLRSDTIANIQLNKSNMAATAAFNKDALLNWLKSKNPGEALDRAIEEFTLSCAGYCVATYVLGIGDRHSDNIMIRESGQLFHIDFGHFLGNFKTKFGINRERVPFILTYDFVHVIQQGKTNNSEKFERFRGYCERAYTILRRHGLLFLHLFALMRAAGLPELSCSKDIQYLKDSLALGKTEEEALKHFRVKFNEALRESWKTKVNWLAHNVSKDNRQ
Sequence of PI3KD (P27986 whole entry partner): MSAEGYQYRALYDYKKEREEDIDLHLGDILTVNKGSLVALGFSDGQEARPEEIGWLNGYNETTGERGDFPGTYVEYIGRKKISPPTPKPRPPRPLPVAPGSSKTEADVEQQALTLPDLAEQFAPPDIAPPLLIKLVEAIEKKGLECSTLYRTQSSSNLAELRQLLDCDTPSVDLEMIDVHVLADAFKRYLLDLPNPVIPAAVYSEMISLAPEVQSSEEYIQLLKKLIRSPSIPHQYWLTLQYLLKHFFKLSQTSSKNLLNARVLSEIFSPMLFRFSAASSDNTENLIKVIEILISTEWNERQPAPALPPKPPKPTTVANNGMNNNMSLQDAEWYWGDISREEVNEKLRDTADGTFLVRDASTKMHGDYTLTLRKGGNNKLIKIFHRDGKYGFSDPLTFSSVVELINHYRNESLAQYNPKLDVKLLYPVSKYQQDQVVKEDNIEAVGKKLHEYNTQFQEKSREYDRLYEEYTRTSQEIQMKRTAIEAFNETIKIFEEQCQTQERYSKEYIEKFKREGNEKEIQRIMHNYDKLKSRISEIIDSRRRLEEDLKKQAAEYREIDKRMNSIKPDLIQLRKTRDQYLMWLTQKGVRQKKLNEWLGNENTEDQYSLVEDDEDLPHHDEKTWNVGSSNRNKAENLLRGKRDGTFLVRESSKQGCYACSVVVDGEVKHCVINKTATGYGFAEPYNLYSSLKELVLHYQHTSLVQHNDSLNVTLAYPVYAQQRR

In data set [1], `CCn1cc(-c2ccncn2)c(-c2cccc(NS(=O)(=O)c3cc(F)ccc3F)c2)n1` [Compound 2] had a chromatographic logD of 4. For the same compound, the IC50 in data set [2] (setting [8]) is 0.041 µM; in data set [4] it was over 50.1 µM; in data set [5], 7.9 µM; in data set [6], over 31.6 µM; in data set [7], over 100 µM. Also, in data set [3], the LE came out at 0.33. The same compound registered an LLE in data set [3] of 4.2.

With `Cc1ccc(S(C)(=O)=O)cc1Nc1nccc(-c2sc(CC(N)=O)nc2-c2ccccc2)n1` [Compound 3], the chromatographic logD in data set [1] came to 3.3. In addition, the IC50 was 0.013 µM in data set [2] (setting [8]); 0.0794 µM in data set [4]; 0.251 µM in data set [5]; over 31.6 µM in data set [6]; 50.1 µM in data set [7]. In data set [3], this compound yielded an LE of 0.33. In addition, the LLE in data set [3] worked out at 6.0.

In turn, `CC(C)(CN)c1cc(-c2ccc(Cl)c(O)c2)c(-c2ccncc2)o1` [Compound 4] came in with a chromatographic logD in data set [1] of 3.1. In addition, the IC50 in data set [2] (IC50 (WT PfPKG activity), Figure 3, most scored compound of each cluster and singletons) was 0.002 µM; in data set [2] (setting [8]), 0.0017 µM; in data set [4], over 50.1 µM; in data set [5] it was 0.126 µM; in data set [6] it was over 31.6 µM; in data set [7], 12.6 µM. Moreover, the LE in data set [3] was 0.5. For the same compound, in data set [3], the LLE turned out to be 5.5.

`CCn1c(-c2nonc2N)nc2c(-c3ccccc3)ncc(CN(C)C3CCN(C)CC3)c21` [Compound 5] showed a chromatographic logD in data set [1] of 3.7. The IC50 in data set [2] (setting [8]) was 0.039 µM; in data set [4] it was over 50.1 µM; in data set [5] it was 12.6 µM; in data set [6] it was 12.6 µM; in data set [7] it was 12.6 µM. Besides, the LE in data set [3] stood at 0.3. This compound also displayed an LLE in data set [3] of 4.3.

`CNS(=O)(=O)c1cccc(Nc2ccnc(Nc3cccc(S(=O)(=O)NC)c3)n2)c1` [Compound 6] yielded a chromatographic logD in data set [1] of 3.4. Further, the IC50 in data set [2] (setting [8]) came out at 0.07 µM; in data set [4] it was 2.5 µM; in data set [5], 2 µM; in data set [6], 0.0631 µM; in data set [7], 25.1 µM. The compound also gave an LE in data set [3] of 0.33. For the same compound, in data set [3], the LLE was determined as 4.5.

In data set [1], `COc1ccc(-c2c(-c3cccc(C(=O)N4CCN(C)CC4)c3)oc3ncnc(N)c23)cc1` [Compound 7] registered a chromatographic logD of 2.6. Further, the IC50 in data set [2] (setting [8]) was 0.01 µM; in data set [4], 39.8 µM; in data set [5] it was 0.4 µM; in data set [6] it was 3.2 µM; in data set [7] it was over 100 µM. In addition, the LE in data set [3] stood at 0.33. Also, in data set [3], the LLE is 5.4.

As to `COc1ccc(CCNC(=O)CSc2ncnc3[nH]ncc23)cc1OC` [Compound 8], the chromatographic logD in data set [1] is 2.3. In addition, the IC50 was 0.104 µM in data set [2] (setting [8]); over 50.1 µM in data set [4]; over 31.6 µM in data set [5]; over 31.6 µM in data set [6]; over 100 µM in data set [7]. In addition, the LE in data set [3] is reported as 0.37. This compound came in with an LLE in data set [3] of 5.5.

In the case of `COc1cccc(Nc2nc(-c3ccncc3)cc(N3CCN(C)CC3)n2)c1` [Compound 9], the chromatographic logD in data set [1] amounted to 3.6. Moreover, the IC50 in data set [2] (setting [8]) was 0.027 µM; in data set [4] it was over 50.1 µM; in data set [5] it was over 31.6 µM; in data set [6], over 31.6 µM; in data set [7] it was 5 µM. This compound also displayed an LE in data set [3] of 0.37. The LLE in data set [3] amounted to 3.9.

With `COc1cc(CS(C)(=O)=O)ccc1Nc1nc(Nc2cc(F)ccc2C(N)=O)c2cc[nH]c2n1` [Compound 10], the chromatographic logD in data set [1] came to 3.3. For the same compound, the IC50 was 0.05 µM in data set [2] (setting [8]); over 50.1 µM in data set [4]; over 31.6 µM in data set [5]; over 31.6 µM in data set [6]; over 100 µM in data set [7]. In addition, the LE in data set [3] is reported as 0.3. The compound also registered an LLE in data set [3] of 4.4.

In turn, `O=C(N[C@@H](CO)c1ccccc1)c1ccc2cncc(-c3cn[nH]c3)c2n1` [Compound 11] had a chromatographic logD in data set [1] of 1.9. Further, the IC50 in data set [2] (setting [8]) was 0.094 µM; in data set [4], 7.9 µM; in data set [5] it was 1 µM; in data set [6], 0.2 µM; in data set [7], over 100 µM. The LE in data set [3] amounted to 0.36. The LLE in data set [3] stood at 4.9.

Turning to `NCCNCc1ccc(-c2cc3ccncc3cc2OC2CCNCC2)s1` [Compound 12], in data set [1], the chromatographic logD is -0.36. The IC50 in data set [2] (setting [8]) was 0.324 µM; in data set [5] it was 4 µM; in data set [6], 10 µM; in data set [7], over 100 µM. For the same compound, the LE in data set [3] was 0.33. The LLE in data set [3] came to 4.7.

`CNCCOc1cnc(-c2ccoc2C)c(-c2ccc3cnccc3c2)c1` [Compound 13]: the chromatographic logD in data set [1] worked out at 2.1. The IC50 in data set [2] (setting [8]) was 0.007 µM; in data set [4], over 50.1 µM; in data set [5] it was 1.3 µM; in data set [6], over 31.6 µM; in data set [7], 63.1 µM. The compound further gave an LE in data set [3] of 0.4. In addition, the LLE in data set [3] is on record as 5.1.

Take `O=C(c1cccc(OCc2cccnc2)c1)N1CCc2sccc2C1CN1CCCCC1` (centres unmarked) [Compound 14]: the chromatographic logD in data set [1] was determined as 3.9. In addition, the IC50 in data set [2] (setting [8]) was 0.036 µM; in data set [4], over 50.1 µM; in data set [5] it was over 31.6 µM; in data set [6] it was over 31.6 µM; in data set [7], over 100 µM. Besides, the LE in data set [3] stood at 0.32. The compound also yielded an LLE in data set [3] of 2.9.
